The results in this text go back to patent publication US10987349B2, “Antitumor agent and bromodomain inhibitor” (FUJIFILM Corporation, priority 2016, dated 2021).

Assay [1] concerns the target T1, BRD2 BD1 (Homo sapiens, UniProt P25440).
T1 construct: BRD2 BD1, BRD3 BD1 and BRD4 BD1 (Cisbio); purchased Cisbio
In words: Binding assay, BRD2 BD1 to acetylated histone H4 Peptide-Biotin (EPIgeneous Binding Domain Kit A). The conditions noted are these: for inhibition at 0.3 µM: test compound at 300 nmol/L, read-out: Binding inhibition percentage BRD2 BD1. Put shortly:
(§1)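 HTRF competition: bromodomain protein (added at 20 nmol/L) and biotinylated tetra-acetyl H4(1-25) peptide (added at 25 nmol/L) were incubated with compound, streptavidin-d2 and anti-GST Eu cryptate for 20 h at room temperature. Inhibition came from the 665/620 nm ratio relative to DMSO; IC50 by four-parameter fit; some compounds were tested only at 300 nmol/L final.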

Assay [2] addresses T2, BRD2 BD2 (Homo sapiens, UniProt P25440).
T2 construct: BRD2 BD2, BRD3 BD2 and BRD4 BD2 (Cisbio); purchased Cisbio
In words: Binding assay, BRD2 BD2 to acetylated histone H4 Peptide-Biotin (EPIgeneous Binding Domain Kit B). The conditions noted are these: for inhibition at 0.3 µM: test compound at 300 nmol/L, read-out: Binding inhibition percentage BRD2 BD2. A digest of the protocol:
(§2)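 HTRF binding of GST-tagged BD2 (20 nmol/L working stock) to biotinylated acetyl-histone H4 peptide (250 nmol/L working stock), using streptavidin-XL665 and anti-GST Eu cryptate. Incubated 20 h at room temperature; 665/620 nm ratio versus DMSO gives % inhibition; IC50 by four-parameter fit, or % inhibition at 300 nmol/L.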

For assay [3], the system named is MV4-11 subcutaneously transplanted tumor. Description: Medicinal effect test, MV4-11-subcutaneously-transplanted cancer-bearing mouse models, oral administration. Type of assay: in vivo. The conditions noted are these: orally, once per day, 14 days, BALB/c nu/nu mice. Here is the method: The human acute myeloid leukemia cell line MV4-11 (ATCC) was suspended in a mixture of RPMI-1640 medium and Matrigel (Corning), and the obtained mixture was then subcutaneously transplanted into 6-week-old female BALB/c nu/nu mice (CLEA Japan, Inc.). After confirming that the average tumor volume exceeded 200 mm^3, a test compound was dissolved in a solvent (a 0.5% methyl cellulose aqueous solution or water containing 1 equivalent of hydrochloric acid), and the obtained solution was then orally administered to the mice at a daily dose of 10 to 30 mg/kg, once per day, for 14 days. As a negative control, a solvent administration group involving administration of a 0.5% methyl cellulose aqueous solution was established. The tumor diameter was measured on a daily basis, and the tumor volume was calculated. The tumor volume was calculated by measuring the major axis and minor axis of the tumor and then applying the following equation. Tumor volume (mm^3)=[major axis (mm)×minor axis (mm)×minor axis (mm)]/2
T/C (%) was calculated from the average tumor volume of each group according to the following equation, and medicinal effects were then evaluated. T/C(%)=[1−(average tumor volume of drug administration group)/(average tumor volume of solvent administration group)]×100%

The target of assay [4] is T3, BRD4 BD1 (Homo sapiens, UniProt O60885).
T3 construct: BRD2 BD1, BRD3 BD1 and BRD4 BD1 (Cisbio); purchased Cisbio
Description: Binding assay, BRD4 BD1 to acetylated histone H4 Peptide-Biotin (EPIgeneous Binding Domain Kit A). The conditions noted are these: for inhibition at 0.3 µM: test compound at 300 nmol/L, read-out: Binding inhibition percentage BRD4 BD1. A digest of the protocol: as §1

Assay [5] concerns the target T4, BRD4 BD2 (Homo sapiens, UniProt O60885).
T4 construct: BRD2 BD2, BRD3 BD2 and BRD4 BD2 (Cisbio); purchased Cisbio
In words: Binding assay, BRD4 BD2 to acetylated histone H4 Peptide-Biotin (EPIgeneous Binding Domain Kit B). The conditions noted are these: for inhibition at 0.3 µM: test compound at 300 nmol/L, read-out: Binding inhibition percentage BRD4 BD2. A digest of the protocol:
as §2

Molecules are shown by their SMILES.

T1 sequence (P25440 74-180 limits assumed): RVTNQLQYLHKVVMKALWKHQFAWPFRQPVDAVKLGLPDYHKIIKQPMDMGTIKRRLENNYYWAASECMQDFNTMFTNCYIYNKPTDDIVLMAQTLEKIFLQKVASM
T2 sequence (P25440 344-453 limits assumed): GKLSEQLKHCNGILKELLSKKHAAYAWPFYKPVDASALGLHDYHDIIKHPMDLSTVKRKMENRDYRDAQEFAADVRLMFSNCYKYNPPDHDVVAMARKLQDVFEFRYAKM

On to `CCn1c(=O)cc(C2CCN(C)CC2)c2cc(C(=O)N(C)c3ccc(C)cc3)ccc21` [Example 14, 1-Ethyl-N-methyl-N-(4-methylphenyl)-4-(1-methylpiperidin-4-yl)-2-oxo-1,2-dihydroquinoline-6-carboxamide], for which the concentration for half-maximal inhibition (IC50) (commonly the concentration that gives 50% inhibition) was 9 nM in assay [1], 94 nM in assay [2], 5 nM in assay [4] and 27 nM in assay [5]. Besides, the inhibition (usually the change of the read-out against control, counted positive when it falls) at 0.3 µM in assay [1] was found to be 93%; in assay [2], 74%; in assay [4] it was 93%; in assay [5], 82%. Further, the “T/C (%)” value in assay [3] (10 mg/kg) is listed as 34%; in assay [3] (30 mg/kg) it was 45%.
For `CCn1c(=O)cc(C2CCN(C)CC2)c2cc(C(=O)N(C)c3ccc4c(c3)CCC4)ccc21` [Example 17, N-(2,3-dihydro-1H-inden-5-yl)-1-ethyl-N-methyl-4-(1-methylpiperidin-4-yl)-2-oxo-1,2-dihydroquinoline-6-carboxamide], the 50% inhibitory concentration (IC50) in assay [1] came to 5 nM; in assay [2], 33 nM; in assay [4], 3 nM; in assay [5], 10 nM. Also, the inhibition at 0.3 µM in assay [1] amounted to 93%; in assay [2] it was 85%; in assay [4], 94%; in assay [5], 88%. In addition, the “T/C (%)” value in assay [3] (10 mg/kg) worked out at 21%; in assay [3] (30 mg/kg), 49%.
As to `CCn1c(=O)cc(N2CCOCC2)c2cc(-n3c(-c4ccc(Cl)cc4)c[nH]c3=O)ccc21` [Example 245, 6-(5-(4-chlorophenyl)-2-oxo-2,3-dihydro-1H-imidazol-1-yl)-1-ethyl-4-(morpholin-4-yl)quinolin-2(1H)-one], the IC50 in assay [1] was determined as 61 nM; in assay [2] it was 7 nM; in assay [4] it was 20 nM; in assay [5] it was 3 nM. In addition, the inhibition at 0.3 µM in assay [1] turned out to be 79%; in assay [2], 89%; in assay [4] it was 91%; in assay [5] it was 88%. For the same compound, in assay [3] (30 mg/kg), the “T/C (%)” value was found to be 42%.
